# Laboratory results: patent US20060166900A1, “Salt of morphine-6-glucuronide” (CeNeS Limited, priority 2002, published 2006)
# Tests used:
# Type in all cases: physicochemical
# [1] = Storage stability of M6G base (general statement)
# [2] = Colour of solution by visible spectrophotometry on storage (Example 3); settings: 5% w/v solution in water
# In short: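 5% w/v aqueous solution, absorbance at 420 nm in a 1 cm silica cell. Samples were stored in argon-flushed brown opaque HDPE bottles at 25° C./60% RH, 40° C./75% RH and 60° C.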
# [3] = Water content by Karl Fisher analysis on storage (Example 3)
# In short: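 900 mg aliquots were held in argon-flushed brown opaque HDPE bottles at 25 °C/60% RH, 40 °C/75% RH and 60 °C. At each time point, water content (% w/w) was determined in duplicate on about 100 mg of equilibrated material by Karl Fischer titration.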
# [4] = Visual appearance on storage (Example 3)
# In short: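 Aliquots (900 mg) kept at 2-8 °C beforehand were stored in argon-flushed brown opaque HDPE bottles at 25 °C/60% RH, 40 °C/75% RH and 60 °C. Visual appearance was assessed at set time points.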
# [5] = Stability indicating HPLC assay and related substances on storage (Example 3)
# [6] = Stability of M6G salts at room temperature over 6 years, HPLC
compound,measurement,setting,value
"CN1CC[C@]23c4c5ccc(O)c4O[C@H]2[C@@H](O[C@@H]2O[C@H](C(=O)O)[C@@H](O)[C@H](O)[C@H]2O)C=C[C@H]3[C@H]1C5 [Morphine-6-glucuronide base, morphine-6-β-D-glucuronide]",stability on storage,[1]; stored at room temperature,does degrade
same,stability on storage,[1]; stored at −20° C.,stable
same,Colour,"[2]; 1 month, 25° C./60% RH",0.040 Abs@420 nm
same,Colour,"[2]; 1 month, 40° C./75% RH",0.182 Abs@420 nm
same,Colour,"[2]; 1 month, 60° C.",0.541 Abs@420 nm
same,Colour,"[2]; 3 months, 25° C./60% RH",0.132 Abs@420 nm
same,Colour,"[2]; 3 months, 40° C./75% RH",0.680 Abs@420 nm
same,Colour,[2]; Initial,0.017 Abs@420 nm
same,Moisture,"[3]; 1 month, 25° C./60% RH",9.00 % w/w
same,Moisture,"[3]; 1 month, 40° C./75% RH",9.68 % w/w
same,Moisture,"[3]; 1 month, 60° C.",8.21 % w/w
same,Moisture,"[3]; 3 months, 25° C./60% RH",9.53 % w/w
same,Moisture,"[3]; 3 months, 40° C./75% RH",9.85 % w/w
same,Moisture,[3]; Initial,9.80 % w/w
same,moisture content across storage conditions,[3]; regardless of storage condition,reasonably consistent
same,Appearance,"[4]; 1 month, 25° C./60% RH",White crystalline powder
same,Appearance,"[4]; 1 month, 40° C./75% RH",Pale yellow crystalline powder
same,Appearance,"[4]; 1 month, 60° C.",Yellow crystalline powder
same,Appearance,"[4]; 3 months, 25° C./60% RH",White crystalline powder
same,Appearance,"[4]; 3 months, 25° C./60% RH, listed as base",white crystalline solids
same,Appearance,"[4]; 3 months, 40° C./75% RH",Yellow crystalline powder
same,Appearance,[4]; Initial,White crystalline powder
same,Known Related Substances HN33177,"[5]; 1 month, 25° C./60% RH",0.88%
same,Known Related Substances HN75083,"[5]; 1 month, 25° C./60% RH",0.05%
same,"M6G Assay, Anhydrous basis","[5]; 1 month, 25° C./60% RH",99.61 % w/w
same,"M6G Assay, As is basis","[5]; 1 month, 25° C./60% RH",90.77 % w/w
same,"M6G Assay, Corrected for the salt form","[5]; 1 month, 25° C./60% RH",99.61 % w/w
same,Total Known,"[5]; 1 month, 25° C./60% RH",0.93%
same,Total Related Substances,"[5]; 1 month, 25° C./60% RH",1.00%
same,Total Unknown,"[5]; 1 month, 25° C./60% RH",0.07%
same,Known Related Substances HN33177,"[5]; 1 month, 40° C./75% RH",0.85%
same,Known Related Substances HN67003,"[5]; 1 month, 40° C./75% RH",0.05%
same,Known Related Substances HN75083,"[5]; 1 month, 40° C./75% RH",0.03%
same,"M6G Assay, Anhydrous basis","[5]; 1 month, 40° C./75% RH",99.45 % w/w
same,"M6G Assay, As is basis","[5]; 1 month, 40° C./75% RH",89.94 % w/w
same,"M6G Assay, Corrected for the salt form","[5]; 1 month, 40° C./75% RH",99.45 % w/w
same,Total Known,"[5]; 1 month, 40° C./75% RH",0.93%
same,Total Related Substances,"[5]; 1 month, 40° C./75% RH",1.27%
same,Total Unknown,"[5]; 1 month, 40° C./75% RH",0.34%
same,Known Related Substances HN33177,"[5]; 1 month, 60° C.",0.83%
same,Known Related Substances HN67003,"[5]; 1 month, 60° C.",0.19%
same,Known Related Substances HN75083,"[5]; 1 month, 60° C.",0.02%
same,"M6G Assay, Anhydrous basis","[5]; 1 month, 60° C.",96.18 % w/w
same,"M6G Assay, As is basis","[5]; 1 month, 60° C.",89.31 % w/w
same,"M6G Assay, Corrected for the salt form","[5]; 1 month, 60° C.",96.18 % w/w
same,Total Known,"[5]; 1 month, 60° C.",1.04%
same,Total Related Substances,"[5]; 1 month, 60° C.",2.31%
same,Total Unknown,"[5]; 1 month, 60° C.",1.27%
same,stability based on % w/w assay,[5]; 3 month assay data,most stable
same,Known Related Substances HN33177,"[5]; 3 months, 25° C./60% RH",0.86%
same,Known Related Substances HN67003,"[5]; 3 months, 25° C./60% RH",0.04%
same,"M6G Assay, Anhydrous basis","[5]; 3 months, 25° C./60% RH",100.27 % w/w
same,"M6G Assay, As is basis","[5]; 3 months, 25° C./60% RH",91.84 % w/w
same,"M6G Assay, Corrected for the salt form","[5]; 3 months, 25° C./60% RH",100.27 % w/w
same,Total Known,"[5]; 3 months, 25° C./60% RH",0.90%
same,Total Related Substances,"[5]; 3 months, 25° C./60% RH",1.42%
same,Total Unknown,"[5]; 3 months, 25° C./60% RH",0.52%
same,Known Related Substances HN33177,"[5]; 3 months, 40° C./75% RH",0.95%
same,Known Related Substances HN67003,"[5]; 3 months, 40° C./75% RH",0.23%
same,Known Related Substances HN75076,"[5]; 3 months, 40° C./75% RH",0.01%
same,Known Related Substances Morphine,"[5]; 3 months, 40° C./75% RH",0.07%
same,"M6G Assay, Anhydrous basis","[5]; 3 months, 40° C./75% RH",97.15 % w/w
same,"M6G Assay, As is basis","[5]; 3 months, 40° C./75% RH",88.67 % w/w
same,"M6G Assay, Corrected for the salt form","[5]; 3 months, 40° C./75% RH",97.15 % w/w
same,Total Known,"[5]; 3 months, 40° C./75% RH",1.26%
same,Total Related Substances,"[5]; 3 months, 40° C./75% RH",4.34%
same,Total Unknown,"[5]; 3 months, 40° C./75% RH",3.08%
same,increase in the amount of degradation products as measured by HPLC,"[5]; 3 months, 40° C./75% RH",approximately 3%
same,stability assessment,"[5]; 25° C./60% RH, three months",relatively stable
same,stability assessment,[5]; 40° C./75% RH over 3 months (base also 60° C. over 1 month),shows signs of degradation
same,Known Related Substances HN33177,[5]; Initial,0.87%
same,Known Related Substances HN67003,[5]; Initial,0.05%
same,Known Related Substances HN75083,[5]; Initial,0.06%
same,"M6G Assay, Anhydrous basis",[5]; Initial,99.79 % w/w
same,"M6G Assay, As is basis",[5]; Initial,91.07 % w/w
same,"M6G Assay, Corrected for the salt form",[5]; Initial,99.79 % w/w
same,Total Known,[5]; Initial,0.98%
same,Total Related Substances,[5]; Initial,0.98%
same,Total Unknown,[5]; Initial,0.00%
same,HN-33177,[6]; 0 years,0.7%
same,Unknown related substances (sum area %),[6]; 0 years,<0.1 area %
same,Assay M6G corr.,"[6]; 0 years, content calculated as M6G derivative",98.2%
same,Assay M6G corr.,[6]; 5 years at ambient temperature,81.2%
same,HN-33177,[6]; 5 years at ambient temperature,0.8%
same,Morphine,[6]; 5 years at ambient temperature,0.3%
same,Unknown related substances (sum area %),[6]; 5 years at ambient temperature,11.8 area %
